Tested on: T1, CYP2C9
T1 construct: gene Cyp2c11; 'CYP2C9' is the human name, rat has no CYP2C9, rat Cyp2c forms turn over the diclofenac probe
Assay: diclofenac probe turnover in rat liver microsomes, LC-MS/MS
Assay type: biochemical
Conditions: 50 μM diclofenac; 0.5 mg/mL microsomal protein; 30 min incubation; 0-100 μM inhibitor

C=C(CC[C@@H](C(=O)O)[C@H]1[C@H](O)C[C@@]2(C)C3=C(CC[C@]12C)[C@@]1(C)CC[C@H](OC(C)=O)C(C)(C)[C@@H]1CC3)C(C)C [pachymic acid]
IC50: 21.2 µM

Reference: publication PMC8439242, “Pharmacokinetic study on the interaction between pachymic acid and bavachin and its potential mechanism” (Pharmaceutical Biology, 2021)
